Test results as given in patent publication US20250325711A1, “COVALENT FLUORESCENT PROBES FOR CANNABINOID RECEPTOR 2” (Hoffmann-La Roche Inc., priority 2022, published 2025).

target: hCB2R (Homo sapiens (Human), UniProt P34972); assay: TR-FRET hCB2R Binding Assay; details: not given

Question: `COc1cc(C(C)(C)CCCCCCN=[N+]=[N-])cc(OC)c1[C@H]1C=C(CNC(=O)CCCCCCCCNC(=O)c2ccc(=O)n(S(=O)(=O)c3cccc(C(=O)NCc4cn(CCOCCNc5ccc([N+](=O)[O-])c6nonc56)nn4)c3)c2)[C@H]2C[C@@H]1C2(C)C` [Example 7, N-(9-((((1S,4S,5S)-4-(4-(8-azido-2-methyloctan-2-yl)-2,6-dimethoxyphenyl)-6,6-dimethylbicyclo[3.1.1]hept-2-en-2-yl)methyl)amino)-9-oxononyl)-1-((3-(((1-(2-(2-((7-nitrobenzo[c][1,2,5]oxadiazol-4-yl)amino)ethoxy)ethyl)-1H-1,2,3-triazol-4-yl)methyl)carbamoyl)phenyl)sulfonyl)-6-oxo-1,6-dihydropyridine-3-carboxamide] was tested. Which Kd did it give?
Answer: The Kd was 8.9 nM.

same assay, conditions: SNAP-tagged human CB2R HEK293-TR cell membranes, TR-FRET (HTRF) detection, nonspecific binding with 1 μM SR144528; read-out: Kd hCB2R

Question: For `COc1cc(C(C)(C)CCCCCCN=[N+]=[N-])cc(OC)c1[C@H]1C=C(CNC(=O)CCCCNC(=O)c2ccc(=O)n(S(=O)(=O)c3cccc(C(=O)NCCc4cn(CCOCCNc5ccc([N+](=O)[O-])c6nonc56)nn4)c3)c2)[C@H]2C[C@@H]1C2(C)C` [Example 1, N-(5-((((1S,4S,5S)-4-(4-(8-azido-2-methyloctan-2-yl)-2,6-dimethoxyphenyl)-6,6-dimethylbicyclo[3.1.1]hept-2-en-2-yl)methyl)amino)-5-oxopentyl)-1-((3-((2-(1-(2-(2-((7-nitrobenzo[c][1,2,5]oxadiazol-4-yl)amino)ethoxy)ethyl)-1H-1,2,3-triazol-4-yl)ethyl)carbamoyl)phenyl)sulfonyl)-6-oxo-1,6-dihydropyridine-3-carboxamide], which Kd is on record?
Answer: Its Kd is 9.1 nM.

Question: How did the Kd turn out when `COc1cc(C(C)(C)CCCCCCN=[N+]=[N-])cc(OC)c1[C@H]1C=C(CNC(=O)CCCCCCNC(=O)c2ccc(=O)n(S(=O)(=O)c3cccc(C(=O)NCc4cn(CCOCCNc5ccc([N+](=O)[O-])c6nonc56)nn4)c3)c2)[C@H]2C[C@@H]1C2(C)C` [Example 2, N-(7-((((1S,4S,5S)-4-(4-(8-azido-2-methyloctan-2-yl)-2,6-dimethoxyphenyl)-6,6-dimethylbicyclo[3.1.1]hept-2-en-2-yl)methyl)amino)-7-oxoheptyl)-1-((3-(((1-(2-(2-((7-nitrobenzo[c][1,2,5]oxadiazol-4-yl)amino)ethoxy)ethyl)-1H-1,2,3-triazol-4-yl)methyl)carbamoyl)phenyl)sulfonyl)-6-oxo-1,6-dihydropyridine-3-carboxamide] was run?
Answer: The Kd was 22.9 nM.

Question: Which Kd does the source give for `CCCCCCC(C)(C)c1cc(OC)c([C@H]2C=C(CNC(=O)CCCCCCNC(=O)c3ccc(=O)n(S(=O)(=O)c4cccc(C(=O)NCc5cn(CCOCCNc6ccc([N+](=O)[O-])c7nonc67)nn5)c4)c3)[C@H]3C[C@@H]2C3(C)C)c(OC)c1` [Example 3, N-(7-((((1S,4S,5S)-4-(2,6-dimethoxy-4-(2-methyloctan-2-yl)phenyl)-6,6-dimethylbicyclo[3.1.1]hept-2-en-2-yl)methyl)amino)-7-oxoheptyl)-1-((3-(((1-(2-(2-((7-nitrobenzo[c][1,2,5]oxadiazol-4-yl)amino)ethoxy)ethyl)-1H-1,2,3-triazol-4-yl)methyl)carbamoyl)phenyl)sulfonyl)-6-oxo-1,6-dihydropyridine-3-carboxamide] here?
Answer: The Kd was 24.2 nM.

Question: Which Kd does the source give for `COc1cc(C(C)(C)CCCCCCN=[N+]=[N-])cc(OC)c1[C@H]1C=C(CNC(=O)CCCCCCNC(=O)c2ccc(=O)n(S(=O)(=O)c3cccc(C(=O)NCc4cn(CCOCCOCCOCCOCCNc5ccc([N+](=O)[O-])c6nonc56)nn4)c3)c2)[C@H]2C[C@@H]1C2(C)C` [Example 4, N-(7-((((1S,4S,5S)-4-(4-(8-azido-2-methyloctan-2-yl)-2,6-dimethoxyphenyl)-6,6-dimethylbicyclo[3.1.1]hept-2-en-2-yl)methyl)amino)-7-oxoheptyl)-1-((3-(((1-(14-((7-nitrobenzo[c][1,2,5]oxadiazol-4-yl)amino)-3,6,9,12-tetraoxatetradecyl)-1H-1,2,3-triazol-4-yl)methyl)carbamoyl)phenyl)sulfonyl)-6-oxo-1,6-dihydropyridine-3-carboxamide] here?
Answer: Its Kd is 4.5 nM.

Question: With `CCN(CC)c1ccc2cc(C=Cc3ccc(S(=O)(=O)[O-])c[n+]3CCCCCC(=O)NCCOCCn3cc(CNC(=O)c4cccc(S(=O)(=O)n5cc(C(=O)NCCCCCCC(=O)NCC6=C[C@H](c7c(OC)cc(C(C)(C)CCCCCCN=[N+]=[N-])cc7OC)[C@@H]7C[C@H]6C7(C)C)ccc5=O)c4)nn3)c(=O)oc2c1` [Example 5, 1-(6-((2-(2-(4-((3-((5-((7-((((1S,4S,5S)-4-(4-(8-azido-2-methyloctan-2-yl)-2,6-dimethoxyphenyl)-6,6-dimethylbicyclo[3.1.1]hept-2-en-2-yl)methyl)amino)-7-oxoheptyl)carbamoyl)-2-oxopyridin-1 (2H)-yl)sulfonyl)benzamido)methyl)-1H-1,2,3-triazol-1-yl)ethoxy)ethyl)amino)-6-oxohexyl)-6-(2-(7-(diethylamino)-2-oxo-2H-chromen-3-yl)vinyl)pyridin-1-ium-3-sulfonate] as the compound, how does the Kd read?
Answer: Its Kd is 59 nM.

Question: With `COc1cc(C(C)(C)CCCCCCN=[N+]=[N-])cc(OC)c1[C@H]1C=C(CNC(=O)CCCCCCNC(=O)c2ccc(S(=O)(=O)N(Cc3ccccn3)C(=O)CCCCCNc3ccc([N+](=O)[O-])c4nonc34)cc2)[C@H]2C[C@@H]1C2(C)C` [Example 8, N-(7-((((1S,4S,5S)-4-(4-(8-azido-2-methyloctan-2-yl)-2,6-dimethoxyphenyl)-6,6-dimethylbicyclo[3.1.1]hept-2-en-2-yl)methyl)amino)-7-oxoheptyl)-4-(N-(6-((7-nitrobenzo[c][1,2,5]oxadiazol-4-yl)amino)hexanoyl)-N-(pyridin-2-ylmethyl)sulfamoyl)benzamide] as the compound, how does the Kd read?
Answer: The Kd was 12 nM.

Question: Which Kd does the source give for `CCCCCCC(C)(C)c1cc(OC)c([C@H]2C=C(CNC(=O)CCCCCCNC(=O)c3ccc(S(=O)(=O)N(Cc4ccccn4)C(=O)CCCCCNc4ccc([N+](=O)[O-])c5nonc45)cc3)[C@H]3C[C@@H]2C3(C)C)c(OC)c1` [Example 9, N-(7-((((1S,4S,5S)-4-(2,6-dimethoxy-4-(2-methyloctan-2-yl)phenyl)-6,6-dimethylbicyclo[3.1.1]hept-2-en-2-yl)methyl)amino)-7-oxoheptyl)-4-(N-(6-((7-nitrobenzo[c][1,2,5]oxadiazol-4-yl)amino)hexanoyl)-N-(pyridin-2-ylmethyl)sulfamoyl)benzamide] here?
Answer: The Kd was 35.5 nM.

Question: Which Kd does the source give for `COc1cc(C(C)(C)CCCCCCN=[N+]=[N-])cc(OC)c1[C@H]1C=C(CNC(=O)CCCCCCNC(=O)c2ccc(S(=O)(=O)N(CC#N)C(=O)CCCCCNc3ccc([N+](=O)[O-])c4nonc34)cc2)[C@H]2C[C@@H]1C2(C)C` [Example 10, N-(7-((((1S,4S,5S)-4-(4-(8-azido-2-methyloctan-2-yl)-2,6-dimethoxyphenyl)-6,6-dimethylbicyclo[3.1.1]hept-2-en-2-yl)methyl)amino)-7-oxoheptyl)-4-(N-(cyanomethyl)-N-(6-((7-nitrobenzo[c][1,2,5]oxadiazol-4-yl)amino)hexanoyl)sulfamoyl)benzamide] here?
Answer: Its Kd is 3.9 nM.

Question: `COc1cc(C(C)(C)CCCCCCN=[N+]=[N-])cc(OC)c1[C@H]1C=C(CNC(=O)CCCCCCNC(=O)c2ccc(S(=O)(=O)N(CC#N)C(=O)CCc3cn(CCOCCNc4ccc([N+](=O)[O-])c5nonc45)nn3)cc2)[C@H]2C[C@@H]1C2(C)C` [Example 11, N-(7-((((1S,4S,5S)-4-(4-(8-azido-2-methyloctan-2-yl)-2,6-dimethoxyphenyl)-6,6-dimethylbicyclo[3.1.1]hept-2-en-2-yl)methyl)amino)-7-oxoheptyl)-4-(N-(cyanomethyl)-N-(3-(1-(2-(2-((7-nitrobenzo[c][1,2,5]oxadiazol-4-yl)amino)ethoxy)ethyl)-1H-1,2,3-triazol-4-yl)propanoyl)sulfamoyl)benzamide] was tested. Which Kd did it give?
Answer: Its Kd is 152 nM.

Question: For `CCN(CC)c1ccc2cc(C=Cc3ccc(S(=O)(=O)[O-])c[n+]3CCCCCC(=O)NCCOCCn3cc(CCC(=O)N(CC#N)S(=O)(=O)c4ccc(C(=O)NCCCCCCC(=O)NCC5=C[C@H](c6c(OC)cc(C(C)(C)CCCCCCN=[N+]=[N-])cc6OC)[C@@H]6C[C@H]5C6(C)C)cc4)nn3)c(=O)oc2c1` [Example 12, 1-(6-((2-(2-(4-(3-((4-((7-((((1S,4S,5S)-4-(4-(8-azido-2-methyloctan-2-yl)-2,6-dimethoxyphenyl)-6,6-dimethylbicyclo[3.1.1]hept-2-en-2-yl)methyl)amino)-7-oxoheptyl)carbamoyl)-N-(cyanomethyl)phenyl)sulfonamido)-3-oxopropyl)-1H-1,2,3-triazol-1-yl)ethoxy)ethyl)amino)-6-oxohexyl)-6-(2-(7-(diethylamino)-2-oxo-2H-chromen-3-yl)vinyl)pyridin-1-ium-3-sulfonate], which Kd is on record?
Answer: Its Kd is 25 nM.

Question: For `COc1cc(C(C)(C)CCCCCCN=[N+]=[N-])cc(OC)c1[C@H]1C=C(CNC(=O)CCCCCCNC(=O)c2ccc(S(=O)(=O)N(CC#N)C(=O)CCc3cn(CCOCCNC(=O)c4ccc5c(c4)C4(OC5=O)c5ccc(N6CCC6)cc5[Si](C)(C)c5cc(N6CCC6)ccc54)nn3)cc2)[C@H]2C[C@@H]1C2(C)C` [Example 13, 3,7-di(azetidin-1-yl)-N-(2-(2-(4-(3-((4-((7-((((1S,4S,5S)-4-(4-(8-azido-2-methyloctan-2-yl)-2,6-dimethoxyphenyl)-6,6-dimethylbicyclo[3.1.1]hept-2-en-2-yl)methyl)amino)-7-oxoheptyl)carbamoyl)-N-(cyanomethyl)phenyl)sulfonamido)-3-oxopropyl)-1H-1,2,3-triazol-1-yl)ethoxy)ethyl)-5,5-dimethyl-3′-oxo-3′H,5H-spiro[dibenzo[b,e]siline-10,1′-isobenzofuran]-6′-carboxamide], which Kd is on record?
Answer: Its Kd is 124 nM.

Question: Which Kd does the source give for `C#CCCC(=O)N(CC#N)S(=O)(=O)c1ccc(C(=O)NCCCCCCC(=O)NCC2=C[C@H](c3c(OC)cc(C(C)(C)CCCCCCN=[N+]=[N-])cc3OC)[C@@H]3C[C@H]2C3(C)C)cc1` [Example 14, N-(7-((((1S,4S,5S)-4-(4-(8-azido-2-methyloctan-2-yl)-2,6-dimethoxyphenyl)-6,6-dimethylbicyclo[3.1.1]hept-2-en-2-yl)methyl)amino)-7-oxoheptyl)-4-(N-(cyanomethyl)-N-(pent-4-ynoyl)sulfamoyl)benzamide] here?
Answer: The Kd was 1.5 nM.
